From ChEMBL document CHEMBL5257043, “Bulbiferamide, an Antitrypanosomal Hexapeptide Cyclized via an N-Acylindole Linkage from a Marine Obligate Microbulbifer” (J Nat Prod, 2023) come the findings set out here.

Each structure is given as a SMILES string. Active and inactive are the calls of the source. The rule behind the calls is not given here. *1 amine or outer side, *2 acyl side, *3 side chain or, on linkers, in order; H or OH if unused. Where a SMILES comes first, the peptide text is derived from it. Bridges are numbered along the chain shown (N, C = ends). CO = O=C([*:1])[*:2]

One experiment has as its system Trypanosoma cruzi. The experiment is described as follows: Antitrypanosomal activity against Trypanosoma cruzi Tulahuen epimastigotes incubated for 24 hrs by cell titer glo luminescent assay. Format: functional, organism-based. A general note: In ATP-based viability assays light output follows the ATP content of the culture.
A further experiment deals with P338. The experiment is described as follows: Cytotoxicity against mouse P388 cells at 100 uM incubated for 84 hrs by MTT assay. In kind it is functional, cell-based.
The test system of the next experiment is Kocuria rhizophila. The experiment is described as follows: Antimicrobial activity against Kocuria rhizophila ATCC9341 at 100 ug/ml incubated for 24 hrs by microplate reader assay. In kind it is functional, organism-based. The note with it: dose 100.0 µg/ml.
For a further experiment, the system named is Staphylococcus aureus. The experiment is described as follows: Antimicrobial activity against Staphylococcus aureus FDA209 JC-1 at 100 ug/ml incubated for 24 hrs by microplate reader assay. In kind it is functional, organism-based. To be noted: dose 100.0 µg/ml.
In a further experiment the test system is Escherichia coli. The experiment is described as follows: Antimicrobial activity against Escherichia coli NIHJ JC-2 at 100 ug/ml incubated for 24 hrs by microplate reader assay. In kind it is functional, organism-based. To be noted: dose 100.0 µg/ml.
For another experiment, the system named is Ralstonia solanacearum. The experiment is described as follows: Antimicrobial activity against Ralstonia solanacearum SUPP1541 at 100 ug/ml incubated for 24 hrs by microplate reader assay. Format: functional, organism-based. The note with it: dose 100.0 µg/ml.
Experiment [1] relates to Agrobacterium tumefaciens. The experiment is described as follows: Antimicrobial activity against Rhizobium radiobacter NBRC14554 at 100 ug/ml incubated for 24 hrs by microplate reader assay. To be noted: dose 100.0 µg/ml. Format: functional, organism-based.
The next experiment relates to Candida albicans. The experiment is described as follows: Antimicrobial activity against Candida albicans NBRC0197 at 100 ug/ml by microplate reader assay. In kind it is functional, organism-based. To be noted: dose 100.0 µg/ml.

One may read the IC50 as the concentration that inhibits the measured activity by half. Consider `CC[C@H](C)[C@@H]1NC(=O)[C@@H](NC(=O)[C@H](CC(C)C)NC(=O)N[C@@H](Cc2ccccc2)C(=O)O)Cc2cn(c3ccccc23)C(=O)[C@H](CC(C)C)NC(=O)[C@H](CCCNC(=N)N)NC1=O` ({Phe-CO}-LWIRL; lactam 2-C), for which, in the experiment on Trypanosoma cruzi, the IC50 amounted to 4.1 µM. Further, the outcome (in the experiment with P338; with Kocuria rhizophila; with Staphylococcus aureus; in the experiment with Escherichia coli; in the experiment on Ralstonia solanacearum; in experiment [1]) was inactive. Also, in the experiment with Candida albicans, the outcome was inactive.
Turning to `O=C(Cn1ccnc1[N+](=O)[O-])NCc1ccccc1` [BENZNIDAZOLE], the concentration for half-maximal inhibition (IC50) in the experiment with Trypanosoma cruzi amounted to 20 µM.
